Counter-ions that a name gives are not always drawn.
Columns and labels:
[1] = tested on: Human foreskin keratinocytes; test: Mitotic activity of epidermal keratinocytes: inhibition of 3H-TdR incorporation into DNA; type: cell-based
Description: The mitotic activity of epidermal keratinocytes is one of the most obvious histological features of the psoriatic lesion. Many cytotoxic drugs used to treat the disease are believed to function by direct inhibition of keratinocyte replication.
Human foreskin keratinocytes were cultured in KGM. When the dishes were approximately 50% covered by cells, SG was added to give final concentrations of 5×10^-5 to 5×10^-9 M. After 3 days, the cells were pulsed with ^3 H-TdR for 4 hours, and incorporation into DNA assayed by conventional means. The inhibition of incorporation in 2 experiments was as follows: […]

[2] = In vivo evaluation of efficacy in treating psoriasis; conditions: moderate to severe psoriasis; documented (cited) procedures
Description: Compounds encompassed by structural formula (I) are evaluated in vivo for their efficacy in treating psoriasis. The methods of the following references are used in the evaluation: Berardesca et al., "Non-invasive Evaluation of Topical Calcipotriol versus Clobetasol in the Treatment of Psoriasis," Acta Derm Venereol (Stokh) 74:302-304 (1994); Elias et al., "A Controlled Trial of Topical Propylthiouracil in the Treatment of Patients with Psoriasis," J. Amer. Acad. Dermatol. 31(3):455-458; and Highton et al., "Calcipotriene Ointment 0.005% for Psoriasis: A Safety and Efficacy Study," J. Amer. Acad. Dermatol. 32(1):67-72 (1995).

[3] = tested on: human skin microvascular endothelial cells; test: Effect on morphology and growth of endothelial cell cultures; type: cell-based
Description: Skin endothelial cells in psoriasis are intimately involved in initiating the inflammatory response. Agents which affect both the binding of T lymphocytes and the hyperproliferation of endothelial cells would be expected to have a major effect in controlling the skin lesions.
In this study, human skin microvascular endothelial cells were isolated both from foreskins removed at circumcision and from skin obtained following a facial cosmetic correction. The endothelial cells were grown in a modified Iscove's medium, and while in the growth phase, the effect of varying concentrations of spirogermanium was studied on both the morphology and the growth of the endothelial cell cultures. Final concentrations of spirogermanium in the growth medium were 1,000, 500, 100, 50, 10, 1.0 and 0.125 μg/ml.

[4] = hydrochloride salt, cited from earlier work

Row | SMILES | inhibition of DNA synthesis in keratinocytes (in words) [1] | efficacy in treating psoriasis [2] | cell death ([3]; 0.125 μg/ml, after 1 week) | endothelial cell morphology ([3]; 10 μg/ml) | endothelial cell morphology ([3]; highest concentrations) | solubility in 95% ethanol ([4]; 95% ethanol) | solubility in water ([4]; water)
1 | C[CH2][Ge]1([CH2]C)[CH2]CC2(CCN(CCCN(C)C)C2)C[CH2]1 [SG] | very potent inhibitor of DNA synthesis in keratinocytes | effective for treating moderate to severe psoriasis | cell death was observed after 1 week | vacuolization was observed before desquamation and ultimate cell death | immediately rounded up and detached from the dish surface | – | –
2 | C[CH2][Ge]1([CH2]C)[CH2]CC2(CCN(CCCN(C)C)C2)C[CH2]1 [spirogermanium HCl] | – | – | – | – | – | freely soluble | freely soluble

— patent US5843936A, “Topical administration of azaspiranes to prevent or treat skin conditions associated with hyperproliferation of keratinocytes” (priority 1996, dated 1998)
